Series [1] deals with Nucleic Acid.
Description: (§1) Inhibitory concentration against DNA-bound ethidium bromide
In series [2] the test system is CHO-AA8. Nature of the series: cells. Particulars: Cricetulus griseus, CHO-AA8, 18 h.
Description: Growth inhibition in CHO subline AA8 cells exposed for 18 hr under aerobic(air) conditions
Series [3] is described as follows: physchem. Particulars: aqueous solution.
Description: (§2) Compound was evaluated for quinoline pKa value in aqueous solution at 25 degree Celsius by spectrophotometry
Series [4] can be described thus: physchem. Particulars: aqueous solution. This is another data set of the same source.
Description: as §2
Series [5] relates to CHO-AA8. Kind of series: cells. Particulars: Cricetulus griseus, CHO-AA8, 18 h. The source holds these as a separate data set.
Description: Growth inhibitory activity against CHO subline AA8 cells exposed for 18 hr under aerobic conditions
Series [6] deals with Nucleic Acid. This is another data set of the same source.
Description: as §1

`CN(C)CCCNc1ccnc2ccccc12` registered a C50 in the series with Nucleic Acid [1] of 4.6 µM. Moreover, half-maximal inhibition in the series on CHO-AA8 [2] (IC50) was put at 125 µM. Further, the pKa – broadly, the negative logarithm of the acid dissociation constant – in “physchem [3]” came to 8.85.

As to `Cc1cc2nccc(NCCCN(C)C)c2cc1[N+](=O)[O-]`, the C50 with Nucleic Acid [1] amounted to 2.3 µM. Further, the half-inhibitory concentration (IC50) (in general, the concentration that gives 50% inhibition) with CHO-AA8 [2] was 28 µM. Moreover, the pKa in “physchem [4]” was found to be 7.38.

`CN(C)CCCNc1ccnc2ccc([N+](=O)[O-])cc12` returned a C50 in the series on Nucleic Acid [1] of 1 µM. In the series with CHO-AA8 [2], the IC50 turned out to be 34 µM. The same molecule returned a pKa in the series “physchem [3]” of 6.99.

In turn, `CN(C)CCCNc1ncnc2cccc([N+](=O)[O-])c12` gave a C50 in the series on Nucleic Acid [1] of 4.3 µM. This molecule also displayed a 50% inhibitory concentration (IC50) with CHO-AA8 [2] of 82 µM. In the series “physchem [4]”, this molecule showed a pKa of 4.05.

The molecule `Cc1cnc2cccc([N+](=O)[O-])c2c1NCCCN(C)C` registered a C50 with Nucleic Acid [1] of 1 µM. Also, the half-maximal inhibitory concentration (IC50) with CHO-AA8 [2] came out at 33 µM. This molecule also had a pKa in “physchem [4]” of 6.01.

In turn, `Cc1cc(NCCCN(C)C)c2c([N+](=O)[O-])cccc2n1` came in with a C50 in the series with Nucleic Acid [1] of 1.1 µM. In the series on CHO-AA8 [2], this molecule had a concentration for half-maximal inhibition (IC50) of 6.6 µM. Moreover, the pKa in the series “physchem [4]” amounted to 6.41.

Take `CN(C)CCNc1ccnc2cccc([N+](=O)[O-])c12`: the C50 in the series on Nucleic Acid [1] came out at 1.5 µM. The molecule also returned an IC50 in the series with CHO-AA8 [2] of 20.9 µM. For the same molecule, the pKa in “physchem [4]” amounted to 5.77.

In the series on CHO-AA8 [5], `CNc1ccc([N+](=O)[O-])c2c(NCCCN(C)C)ccnc12` registered a half-maximal inhibitory concentration (IC50) of 98 µM. The same molecule had a pKa in “physchem [4]” of 4.22.

As to `CN(C)CCN(C)c1ccnc2cccc([N+](=O)[O-])c12`, in the series with Nucleic Acid [1], the C50 came to 3.9 µM. The molecule also registered an IC50 with CHO-AA8 [2] of 95 µM. The same molecule yielded a pKa in the series “physchem [4]” of 4.86.

Turning to `CN(C)CCCNc1ccnc2cccc([N+](=O)[O-])c12`, the C50 in the series on Nucleic Acid [1] was determined as 1.1 µM. Also, in the series with CHO-AA8 [2], the IC50 stood at 12.4 µM. Also, in “physchem [3]”, the pKa came to 6.39.

The molecule `COc1ccc([N+](=O)[O-])c2c(NCCCN(C)C)ccnc12` yielded a concentration for half-maximal inhibition (IC50) in the series on CHO-AA8 [2] of 6.8 µM. For the same molecule, the pKa in “physchem [4]” came out at 6.76.

For the molecule `CN(C)CCCNc1c2ccccc2nc2cccc([N+](=O)[O-])c12` [NITRACRINE], half-maximal inhibition in the series with CHO-AA8 [5] (IC50) was put at 0.024 µM. This lies in the double-digit nanomolar range.

The molecule `Cc1c([N+](=O)[O-])ccc2c(NCCCN(C)C)ccnc12` came in with a C50 in the series with Nucleic Acid [1] of 2.9 µM. Besides, the half-inhibitory concentration (IC50) in the series on CHO-AA8 [2] turned out to be 21 µM. For the same molecule, the pKa in “physchem [4]” turned out to be 6.71.

The molecule `Cc1ccc([N+](=O)[O-])c2c(NCCCN(C)C)ccnc12` came in with a C50 with Nucleic Acid [1] of 3 µM. The molecule further yielded a 50% inhibitory concentration (IC50) with CHO-AA8 [2] of 29 µM. The molecule also came in with a pKa in “physchem [4]” of 6.84.

Turning to `CN(C)CCCNc1ccnc2cc([N+](=O)[O-])ccc12`, in the series on Nucleic Acid [1], the C50 came out at 0.9 µM. In the series with CHO-AA8 [2], this molecule gave an IC50 of 46 µM. In “physchem [3]”, the pKa came out at 6.77.

In the series on Nucleic Acid [1], `Cc1ccc2c(NCCCN(C)C)ccnc2c1[N+](=O)[O-]` came in with a C50 of 4.6 µM. Also, half-maximal inhibition in the series with CHO-AA8 [2] (IC50) was put at 253 µM. In the series “physchem [4]”, this molecule came in with a pKa of 5.51.

In turn, `CN(C)CCCCNc1ccnc2cccc([N+](=O)[O-])c12` registered a C50 with Nucleic Acid [1] of 3.1 µM. Moreover, it took 9 µM to reach half-maximal inhibition in the series on CHO-AA8 [2] (IC50). Besides, in the series “physchem [4]”, the pKa turned out to be 6.71.

`CN(C)CCCNc1c([N+](=O)[O-])cnc2ccccc12` had a C50 in the series on Nucleic Acid [1] of 5 µM. This molecule returned a half-inhibitory concentration (IC50) in the series with CHO-AA8 [2] of 34 µM. This molecule also came in with a pKa in “physchem [3]” of 4.43.

`CN(C)CCCNc1cc[n+](C)c2cccc([N+](=O)[O-])c12` had a C50 with Nucleic Acid [6] of 3.6 µM. In addition, in the series on CHO-AA8 [5], the 50% inhibitory concentration (IC50) was determined as 5.8 µM.

In turn, `COCC(O)Cn1ccnc1[N+](=O)[O-]` (configuration not stated) [MISONIDAZOLE] came in with an IC50 in the series with CHO-AA8 [2] of 12100 µM.

The molecule `Cc1ccc2nccc(NCCCN(C)C)c2c1[N+](=O)[O-]` returned a C50 with Nucleic Acid [1] of 3.1 µM. Besides, the IC50 in the series on CHO-AA8 [2] stood at 170 µM. In “physchem [4]”, the pKa amounted to 6.15.

Consider `CN(C)CCCNc1ccnc2c([N+](=O)[O-])cccc12`, for which the C50 with Nucleic Acid [1] was 1.2 µM. This molecule came in with an IC50 with CHO-AA8 [2] of 93 µM. For the same molecule, the pKa in “physchem [4]” stood at 6.91.

In the case of `Cc1nc2ccccc2c(NCCCN(C)C)c1[N+](=O)[O-]`, the C50 in the series on Nucleic Acid [1] was 8.6 µM. For the same molecule, the midpoint of inhibition in the series on CHO-AA8 [2], the IC50, lay at 226 µM. Also, in “physchem [4]”, the pKa turned out to be 5.35.

Source of the values: ChEMBL document CHEMBL1125565, “Hypoxia-selective antitumor agents. 6. 4-(Alkylamino)nitroquinolines: a new class of hypoxia-selective cytotoxins” (J Med Chem, 1992).
